From PubChem BioAssay (NCI)
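Method: 48-hour compound exposure of cells in 96-well plates, five concentrations, linear interpolation of endpoints. The concentration for full growth arrest is given as TGI.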

Experiments:
Test in all cases: NCI-60 cell line screen, 48 h
ACHN renal = test system: ACHN renal
BT-549 breast = test system: BT-549 breast
CCRF-CEM leukemia = test system: CCRF-CEM leukemia
EKVX NSCLC = test system: EKVX NSCLC
HL-60(TB) leukemia = test system: HL-60(TB) leukemia
HOP-62 NSCLC = test system: HOP-62 NSCLC
HT29 colon = test system: HT29 colon
KM12 colon = test system: KM12 colon
MALME-3M melanoma = test system: MALME-3M melanoma
MDA-MB-231 breast = test system: MDA-MB-231 breast
NCI/ADR-RES ovarian = test system: NCI/ADR-RES ovarian
OVCAR-4 ovarian = test system: OVCAR-4 ovarian
PC-3 prostate = test system: PC-3 prostate
SF-268 CNS = test system: SF-268 CNS
SF-539 CNS = test system: SF-539 CNS
SK-MEL-2 melanoma = test system: SK-MEL-2 melanoma
TK-10 renal = test system: TK-10 renal
UACC-62 melanoma = test system: UACC-62 melanoma
OVCAR-3 ovarian = test system: OVCAR-3 ovarian

SMILES | TGI (ACHN renal) [µM] | TGI (BT-549 breast) [µM] | TGI (CCRF-CEM leukemia) [µM] | TGI (EKVX NSCLC) [µM] | TGI (HL-60(TB) leukemia) [µM] | TGI (HOP-62 NSCLC) [µM] | TGI (HT29 colon) [µM] | TGI (KM12 colon) [µM] | TGI (MALME-3M melanoma) [µM] | TGI (MDA-MB-231 breast) [µM] | TGI (NCI/ADR-RES ovarian) [µM] | TGI (OVCAR-4 ovarian) [µM] | TGI (PC-3 prostate) [µM] | TGI (SF-268 CNS) [µM] | TGI (SF-539 CNS) [µM] | TGI (SK-MEL-2 melanoma) [µM] | TGI (TK-10 renal) [µM] | TGI (UACC-62 melanoma) [µM] | TGI (OVCAR-3 ovarian) [µM]
CC1=C2CC(C)(C)CC(=O)C2(C)CCC1=O (configuration not stated) | > 100 | > 100 | > 100 | > 100 | > 100 | > 100 | > 100 | > 100 | > 100 | > 100 | > 100 | > 100 | > 100 | > 100 | > 100 | > 100 | > 100 | > 100 | 
Nc1ncnc2c1N=C(c1ccccc1)CC(c1ccccc1)N2 (configuration not stated) | > 100 | > 100 | > 100 | > 100 |  | > 100 | > 100 | > 100 | > 100 | > 100 | > 100 | > 100 | > 100 | > 100 | > 100 | > 100 | > 100 | > 100 | > 100
CC(=O)Nc1sccc1S(=O)(=O)c1ccc(Cl)cc1 | > 100 | > 100 | > 100 | > 100 | > 100 |  | > 100 | > 100 | > 100 | > 100 | > 100 | > 100 | > 100 | > 100 | > 100 | > 100 | > 100 | > 100 | > 100
Cc1ccc(C=C(C(=O)O)C(=O)O)o1 | > 100 | > 100 | > 100 | > 100 | > 100 | > 100 | > 100 | > 100 | > 100 | > 100 | > 100 |  | > 100 | > 100 | > 100 | > 100 | > 100 | > 100 | > 100
O=C(O)Cn1ccc(=O)c2c([N+](=O)[O-])cccc21 | > 100 | > 100 | > 100 |  | > 100 | > 100 | > 100 | > 100 | > 100 | > 100 | > 100 |  | > 100 | > 100 | > 100 | > 100 | > 100 | > 100 | > 100
CCOP(=O)(/C=C\n1ccc(=O)[nH]c1=O)OCC | > 100 | > 100 | > 100 | > 100 | > 100 | > 100 | > 100 | > 100 |  | > 100 | > 100 | > 100 | > 100 | > 100 | > 100 | > 100 | > 100 | > 100 | > 100
CCOc1cc2c(cc1O)CC[C@@H]1[C@@H]2CC[C@]2(C)[C@@H](O)CC[C@@H]12 | > 96.1 | 18.3 | 11.9 | 48 | 0.352 | 15.1 | 17.4 | 10.8 | 50 | 6.67 | 8.98 | > 100 | 40.8 | 48.5 | 0.0426 | 64.8 |  | 19.7 | 0.76
COCCOCCOCCC(=O)NC1CC2CCC1(C)C2(C)C (configuration not stated) | > 100 | > 100 | > 100 | > 100 | > 100 | > 100 | > 100 | > 100 | > 100 | > 100 | > 100 | > 100 | > 100 | > 100 | > 100 |  | > 100 | > 100 | > 100
CC(=O)O[C@H]1C[C@H]2[C@@H]([C@H](OC(C)=O)C[C@@H]3CC4(CC[C@@]32C)OOC2(CCCCC2)OO4)[C@@H]2CC[C@H]([C@H](C)CCC(=O)O)[C@@]12C | 20.3 | 17.3 | 15.5 | 4.76 | 15.1 | 5.93 | 25.3 | 17.1 | 34.3 | 34.1 | 19 | 9.38 | 22.2 | 26.8 | 20.3 | 26.5 | 27 |  | 37.2
CC(=O)Oc1ccc(/C=C/C(=O)NCCOC(=O)/C=C/c2ccc(OC(C)=O)c(OC(C)=O)c2)cc1OC(C)=O | > 100 | > 100 |  | > 100 |  | > 100 | > 100 | > 100 | > 100 | > 100 | > 100 | > 100 | > 100 | > 100 | > 100 | > 100 | > 100 | 49.1 | 42
CC(=O)N1c2ccccc2[C@H]2CCc3c([nH]c4ccccc34)[C@H]21 | > 100 | 30 | 40.2 | 49 | 34.2 | 28.1 | 44.7 | 39.5 | 30.7 | 31.5 | > 100 |  | > 100 | 52.3 | 26.1 | 74.1 | > 100 | 27.7 | 31.6
Brc1ccc(-c2nc(-c3ccc(Br)cc3)n(-c3ccccc3)n2)cc1 | > 100 | > 100 | > 100 | > 100 | > 100 | > 100 | > 100 | > 100 |  | > 100 | > 100 | > 100 | > 100 | > 100 | > 100 | > 100 | > 100 | > 100 | > 100
O=C1NC2=NN=C(c3ccc(Br)cc3)CN2NC12c1ccccc1-c1ccccc12 | > 100 | > 100 |  | > 100 |  | > 100 | > 100 |  | > 100 | > 100 | > 100 | > 100 | > 100 | > 100 | > 100 | > 100 | > 100 | > 100 | > 100
COc1cc(S(=O)(=O)Nc2ccc(-c3csc(/N=C\c4cccs4)n3)cc2)ccc1Cl | > 100 | > 100 | 80.3 | > 100 |  | > 100 | > 100 |  | > 100 | > 100 | > 100 | > 100 | > 100 | > 100 | > 100 | > 100 | > 100 | 92.2 | > 100
COC(=O)[C@]1(C)CCCC2(C)C3=C(CCC21)CC1(CC3)SCCS1 (some centres not stated) | > 10 | > 10 | > 10 | > 10 | > 10 | > 10 | > 10 | > 10 | > 10 | > 10 | > 10 | > 10 | > 10 | > 10 | > 10 |  | > 10 | > 10 | > 10
O=C(O)c1ccccc1CC(Cc1ccccc1)C(=O)O (configuration not stated) | > 100 | > 100 | > 100 | > 100 | > 100 | > 100 | > 100 | > 100 | > 100 | > 100 | > 100 | > 100 | > 100 | > 100 | > 100 | > 100 | > 100 |  | > 100
COC(=O)c1ccccc1/C=C1\Cc2ccc3ccccc3c2C1C (configuration not stated) | > 100 | > 100 | > 100 | > 100 | > 100 |  |  | > 100 | > 100 | > 100 | > 100 | > 100 | > 100 | > 100 | > 100 | > 100 | > 100 | > 100 | > 100
Clc1cccc2[nH]ncc12 | > 100 | > 100 | > 100 | 95.4 | > 100 | > 100 | > 100 | > 100 |  | > 100 | > 100 | > 100 | > 100 |  | > 100 | > 100 | > 100 | > 100 | > 100
CCOC(=O)[C@@H]1C[C@@H]1c1ccc(O)c(O)c1 | > 100 | 75.9 |  | > 100 |  | > 100 | > 100 | 82.2 | > 100 | 27.8 | > 100 |  | > 100 | > 100 | 49.3 | 68.8 | > 100 | 27 | 67.8
O=C(/C=C/c1ccc(Cl)cc1)c1ccc(Cl)s1 | > 100 | 80.7 | 83.7 | > 100 | > 100 | > 100 | > 100 | > 100 | > 100 | > 100 | > 100 | > 100 | > 100 | > 100 | > 100 |  | > 100 | 93 | > 100
COC(=O)[C@]1(C)[C@H]2C[C@H]3O[C@H]4[C@H](O)[C@@H](O)OC(CC(O)C(C5=CC(=O)OC5)C(C5=CC(=O)OC5)C(O)CC56CCCCC7[C@@H](C)[C@H](C[C@H]8[C@](C)(C(=O)OC)[C@H](O)CC[C@]78C)O[C@H]([C@@H](O)[C@H](O)O5)[C@H]6O)(CCCCC([C@@H]3C)[C@]2(C)CC[C@@H]1O)[C@H]4O (some centres not stated) |  | 0.305 | 0.333 | 0.224 | 0.348 | 0.64 | 0.825 | 1.97 | 0.407 | 1.89 | 0.286 | 0.373 | 0.449 | 0.212 | 0.321 | 0.643 | 0.234 | 0.779 | 1.05
COc1ccc(/C=N/n2c(Cc3ccccc3)n[nH]c2=O)cc1 | > 100 | > 100 | > 100 | > 100 |  | > 100 | > 100 | > 100 | > 100 | > 100 | > 100 | > 100 | > 100 | > 100 | > 100 | > 100 |  | > 100 | > 100
CCCCOc1ccc(S(=O)(=O)/N=C(\N)Nc2ccc(Cl)cc2)cc1 | 27.7 | 32.5 |  | 23.2 |  | 44.2 | 35.2 | 39.6 | 28.5 | 29.7 | 31.5 | 26.5 | 31 | 29.3 | 54.9 | 31.6 | 28.1 | 27.1 | 31.8
O=C(Nc1ccc(Cl)c(C(F)(F)F)c1)C(=O)c1c(O)c2ccccc2oc1=O | > 100 | > 100 | > 100 | > 100 |  | > 100 | > 100 | > 100 | > 100 | > 100 | > 100 | > 100 | > 100 | > 100 | > 100 | > 100 | > 100 | > 100 | > 100
Cc1cc(C)nc(NC(=S)Nc2ccc(Cl)cc2)c1 |  | > 100 | > 100 | > 100 | > 100 | > 100 | > 100 | > 100 | > 100 | > 100 | > 100 | 61.1 | > 100 | > 100 | > 100 | > 100 | > 100 | > 100 | > 100
CCOP(=O)(/C=C/n1cnc2c(=O)n(C(C)=O)c(N)nc21)OCC | > 100 | > 100 | > 100 | > 100 | > 100 | > 100 | > 100 | > 100 |  | > 100 | > 100 | > 100 | > 100 | > 100 | > 100 | > 100 | > 100 | > 100 | > 100
